Measurements taken from patent US10004718B2, “Erythropoietin expression promoter” (TOHOKU UNIVERSITY, priority 2012, dated 2018).

Tests used:
[1] = system: ATP production in Hep3B cells; assay: ATP production in Hep3B cells; assay type: cell-based, human; settings: for amount of ATP produced (FIG. 8): compound 10 μM, 24 hours, ratio to DMSO = 1; for increase of ATP concentration in cells relative to the normal level: at least in 3 hours
Method: The Hep3B cells were seeded at 1×10^4 cells/well to a 24-well cell culture plate and then cultured under normal oxygen (20% O2) for 24 hours. Each of 36 types of compounds (compounds #1 to 15, 17 to 31, and 34 to 39) was mixed at a concentration of 10 μM into RPMI1640 common medium 1. After further culture under normal oxygen (20% […]) for 3 hours, 6 hours, or 24 hours, the concentration of ATP produced in the medium was measured using ATP Assay Reagent of “Cells” (manufactured by Toyo B-Net Co., Ltd.) and GloMa 96 Microplate Luminometer (manufactured by Promega K.K.). Hep3B cells cultured in the absence of the compound (DMSO added [1%]) (“DMSO” of FIGS. 6 to 8) were used as a negative control. Hep3B cells cultured in the presence of HIF activators (FG-4592 [10 μM], DMOG [10 μM], 3,4-DHB [10 μM], and ciclopirox[10 μM]) (“FG”, “DMOG”, “34-DHB”, and “Ciclo”, respectively, of FIGS. 6 to 8) and Hep3B cells cultured in the presence of a transcriptional repressor GATA-specific inhibitor of erythropoietin (K7174 [10 μM]) (“K7174” of FIGS. 6 to 8) were used as positive controls.

[2] = system: mouse erythropoietin gene promoter; assay: Luciferase reporter assay of erythropoietin gene promoter in Hep3B cells; assay type: cell-based; settings: for effect on erythropoietin gene promoter transcriptional activity compared with HIF activator FG-4592: compound 10 μM vs FG-4592 10 μM, 20% O2; for transcription level of the erythropoietin gene promoter: compound 10 μM, 20% O2, 48 hours, vs 20% O2/DMSO
Method: A plasmid vector HE-mPro-luc for luciferase assay on the promoter activity of the 5′ upstream transcriptional regulatory region of the mouse erythropoietin gene was prepared by cleaving, with restriction enzymes XbaI and SacI, a region having a length from −571 to +53 bp starting at the translation initiation site of exon 1 of the mouse erythropoietin gene, and inserting this region to a luciferase reporter vector pXP2 (Nordeen S K. BioTechniques. 6: […], 1988).
The Hep3B cells were adjusted to 10×10^4 cells/well in a 24-well cell culture plate and subcultured. Under microscopy, the Hep3B cells that reached a cell density of 70 to 80% were transfected with the plasmid DNA for luciferase reporter assay. The composition of a solution for transfection was prepared by mixing 2 μg of HE-mPro-luc, 50 ng of pRh-TK (manufactured by Promega K.K.), and 2 μl of Lipofectamine 2000 (manufactured by Invitrogen Corp.) with 100 μl of OptiMEM-I (manufactured by Life Technologies, Inc./GIBCO) per well, followed by incubation at room temperature for 20 minutes. The solution was added to the Hep3B cells in the 24-well cell culture plate preincubated in 0.5 ml of serum-free OptiMEM-I medium, and then incubated for 4 hours without serum and antibiotics under conditions of 37° C. and 5% CO2/20% O2. Then, the medium was replaced with RPMI1640 common medium 1 supplemented with each of 5 types of compounds (compounds #2, 4, 5, 18, and 21) at a concentration of 10 μM, followed by further incubation for 48 hours under conditions of 37° C. and 5% CO2/20% O2. Then, the medium was replaced with 0.5 ml of serum-free PBS, and the cells were gently washed, followed by the removal of PBS by suction. This operation was carried out twice. Then, 100 μl of passive lysis buffer (manufactured by Promega K.K.) was added thereto, and the cells were lysed by mixing at room temperature for 20 minutes. Hep3B cells cultured in the absence of the compound (DMSO added [1%]) (“20% O2/DMSO” of FIG. 3) were used as a negative control. Hep3B cells cultured in the presence of an HIF activator (FG-4592 [10 μM]) (“20% O2/FG4592” of FIG. 3) and Hep3B cells cultured under hypoxia (1% O2) conditions and in the absence of the compound (DMSO added [1%]) (“1% O2/DMSO” of FIG. 3) were used as positive controls.
Dual Luciferase Reporter Assay System (manufactured by Promega K.K.) was used in the luciferase reporter assay. The amounts of firefly and Renilla luciferases were measured using a luminometer Lumat LB9507 (manufactured by BERTHOLD TECHNOLOGIES GmbH & Co. KG). The amount of Fire fly luciferase was divided by the amount of Renilla luciferase to calculate the transcriptional activity of the erythropoietin gene.

[3] = system: mRNA expression of the erythropoietin gene; assay: Quantitative PCR of erythropoietin mRNA in Hep3B cells; assay type: cell-based, human; settings: compound 10 μM, 20% O2, GAPDH internal standard
Method: Of the 5 types of compounds confirmed in Example 4 to be effective for promoting the transcriptional activity of the erythropoietin gene promoter, 4 types of compounds (compounds #2, 4, 5, and 21) were selected. From Hep3B cells cultured in RPMI1640 common medium 1 supplemented with each of these 4 types of compounds at a concentration of 10 μM, total RNA was extracted using TriPure Isolation Reagent (manufactured by F. Hoffmann La Roche AG) in a 6-well cell culture plate. Hep3B cells cultured in the absence of the compound (DMSO added) (“20% O2/DMSO” of FIG. 4) were used as a negative control. Hep3B cells cultured in the presence of a GATA-specific inhibitor (K7174 [10 μM]) (“20% O2/K7174” of FIG. 4) and Hep3B cells cultured under hypoxia (1% O2) conditions and in the absence of the compound (DMSO added [1%]) (“1% O2/DMSO” of FIG. 4) were used as positive controls.
The extracted RNA was used as a template to synthesize cDNA using SuperScript III RTS First-strand kit (manufactured by Invitrogen Corp.). Then, the expression of the erythropoietin mRNA was measured by quantitative PCR with GAPDH as an internal standard. The quantitative PCR was carried out using TaqMan® Gene Expression Assays (using GAPDH; Assay ID: Rn99999916_s1, and human erythropoietin; Assay ID: Hs00171267_ml TaqMan® probes [manufactured by Applied Biosystems Inc.]) and Step One Plus Real-Time PCR System (manufactured by Applied Biosystems Inc.).

Leigh cells = assay: Cell death caused by oxidative stress (BSO) in Leigh syndrome patient fibroblasts; assay type: cell-based, human; settings: compound 10 μM, 4 days after BSO treatment
Method: In Examples 2 to 7 and Reference Example 1 below, an erythropoietin-producing human hepatocellular carcinoma cell Hep3B (obtained from ATCC [American Type Culture Collection]) was cultured and maintained under conditions of 5% CO2/20% O2 and 37° C. in an RPMI1640 (manufactured by Life Technologies, Inc./GIBCO) medium containing 100 U/mL penicillin (manufactured by Life Technologies, Inc./GIBCO), 100 μg/mL streptomycin (manufactured by Life Technologies, Inc./GIBCO), and 10% fetal bovine serum (FBS) (manufactured by Life Technologies, Inc./GIBCO) (hereinafter, referred to as “RPMI1640 common medium 1”). In Example 15 below, Leigh syndrome patients were subjected to skin biopsy to obtain skin fibroblast cells, which were then primarily cultured under conditions of 5% CO2/20% O2 and 37° C. in a DMEM low glucose (manufactured by Life Technologies, Inc./GIBCO) medium containing 100 U/mL penicillin (manufactured by Life Technologies, Inc./GIBCO), 100 μg/mL streptomycin (manufactured by Life Technologies, Inc./GIBCO), and 1% FBS (manufactured by Life Technologies, Inc./GIBCO) (hereinafter, referred to as “DMEM low glucose common medium”) to isolate cells (Leigh cells). In Example 13 below, a human kidney-derived cell line HK-2 (obtained from ATCC) was cultured and maintained under conditions of 5% CO2/20% O2 and 37° C. in a DMEM/F12 (manufactured by Life Technologies, Inc./GIBCO) medium containing 100 U/mL penicillin (manufactured by Life Technologies, Inc./GIBCO), 100 μg/mL streptomycin (manufactured by Life Technologies, Inc./GIBCO), and 10% fetal bovine serum (manufactured by Life Technologies, Inc./GIBCO) (hereinafter, referred to as “DMEM/F12 common medium”). In Example 14 below, a rat islet of Langerhans-derived cell line ISN-1e (kindly provided by Hisamitsu Ishihara, Nihon University School of Medicine) was cultured and maintained under conditions of 5% CO2/20% O2 and 37° C. in an RPMI1640 (manufactured by Life Technologies, Inc./GIBCO) medium containing 10 mM HEPES (manufactured by Sigma-Aldrich Corp.), 2 mM glutamine (manufactured by Sigma-Aldrich Corp.), 50 μM β-mercaptoethanol (manufactured by Sigma-Aldrich Corp.), 100 U/mL penicillin (manufactured by Life Technologies, Inc./GIBCO), 100 μg/mL streptomycin (manufactured by Life Technologies, Inc./GIBCO), and 10% FBS (manufactured by Life Technologies, Inc./GIBCO) (hereinafter, referred to as “RPMI1640 common medium 2”).
The Leigh cells were seeded at 4×10^4 cells/well to a 24-well cell culture plate and then cultured for 24 hours. The glutathione synthesis inhibitor BSO (L-buthionine sulphoximine) (manufactured by Sigma-Aldrich Corp.) was mixed at […] into a medium. After culture for 24 hours in the presence of BSO, each of 5 types of compounds (compounds #2, 4, 5, 21, and 35) was mixed at 10 μM into the medium. After culture for 4 days in the presence of these 5 types of compounds, the number of live cells was measured using Cell Counting Kit-8 (manufactured by Dojindo Laboratories) to calculate the survival rate of the cells (“BSO+#2”, “BSO+#4”, “BSO+#5”, “BSO+#21”, and “BSO+#35” of FIG. 17). […]

| SMILES | amount of ATP produced (FIG. 8) [1] | melting point | also measured |
| --- | --- | --- | --- |
| CCn1cc(CC(=O)O)c2ccccc21 [compound #27, N-Ethyl-3-indoleacetic acid] | enhance the amount of ATP produced | – | – |
| CCOc1ccc2[nH]cc(CC(=O)O)c2c1 [compound #37, 5-Ethoxy-3-indoleacetic acid] | – | 86 to 92.7 °C | – |
| CCCCOc1ccc2[nH]cc(CC(=O)O)c2c1 [compound #39, 5-(1-Butoxy)-3-indoleacetic acid] | – | 137.8 to 141.1 °C | – |
| CCCOc1ccc2[nH]cc(CC(=O)O)c2c1 [compound #38, 5-(1-Propoxy)-3-indoleacetic acid] | enhance the amount of ATP produced | 133.6 to 136.8 °C | – |
| CCCn1cc(C(CC(=O)c2ccc(C)cc2C)C(=O)O)c2ccccc21 (stereo not shown) [compound #6, 4-(2,4-Dimethylphenyl)-2-(1-propyl-1H-indol-3-yl)-4-oxo-butanoic acid] | – | 139 to 141 °C | – |
| CCCCn1cc(CC(=O)O)c2ccccc21 [compound #29, N-Butyl-3-indoleacetic acid] | enhance the amount of ATP produced | – | – |
| COc1ccc2[nH]cc(CC(=O)O)c2c1 [compound #36, 5-Methoxy-3-indoleacetic acid] | – | – | increase of ATP concentration in cells relative to the normal level [1]: two or more times the normal level |
| O=C(CC(C(=O)O)c1c[nH]c2ccccc12)c1ccccc1 (stereo not shown) [compound #20, 4-Phenyl-2-(1H-indol-3-yl)-4-oxo-butanoic acid] | – | 149 to 150 °C | – |
| CCCCOc1ccc2cccc(CC(=O)O)c2c1 [compound #33, α-(7-Butoxy-1-naphthalenyl)-acetic acid] | – | 102 to 104 °C | – |
| CCCCCOc1ccc2cccc(CC(=O)O)c2c1 [compound #34, α-(7-Pentoxy-1-naphthalenyl)-acetic acid] | – | 104 to 106 °C | increase of ATP concentration in cells relative to the normal level [1]: two or more times the normal level |
| CCC(C)CCC(C(=O)O)c1c[nH]c2ccccc12 (stereo not drawn) [compound #18, α-(3-Methyl-1-pentyl)-3-indoleacetic acid] | – | – | effect on erythropoietin gene promoter transcriptional activity compared with HIF activator FG-4592 [2]: superior to the effect of the existing HIF activator (FG-4592); transcription level of the erythropoietin gene promoter [2]: increase the transcription level |
| CCCCCCn1cc(CC(=O)O)c2ccccc21 [compound #30, N-Hexyl-3-indoleacetic acid] | enhance the amount of ATP produced | – | – |
| O=C(CC(C(=O)O)c1c[nH]c2ccccc12)c1ccc(Cl)cc1 (stereo not shown) [compound #2, 4-(4-Chlorophenyl)-2-(1H-indol-3-yl)-4-oxo-butanoic acid] | – | – | effect on erythropoietin gene promoter transcriptional activity compared with HIF activator FG-4592 [2]: superior to the effect of the existing HIF activator (FG-4592); transcription level of the erythropoietin gene promoter [2]: increase the transcription level; mRNA expression level of the erythropoietin gene [3]: increase the mRNA expression level; cell death of the Leigh cells by BSO (Leigh cells): efficiently suppress the cell death |
